What was measured:
Assay type in all cases: physicochemical
[1] = Storage in closed containers at ambient conditions for several months, visual phase check; details: 20-25 C, atmospheric pressure
Source text: Behaviors inconsistent with a single phase liquid include liquid/liquid separation of layers, or liquid/solid striation, in each case noticeable as such to the unaided eye. […] The single phase liquid need not necessarily be a true solution in the physical sense but will appear to be a single phase to the unaided eye as described above.
The amine-herbicide formulations prepared in Examples 1, 2, 3, and 4 were stored in closed containers at ambient conditions (room temperature varying from 20-25 C, atmospheric pressure) for several months.

[2] = Density of max-load solutions at ambient temperature
[3] = 2 mL samples spotted onto glass plates, left uncovered at ambient conditions for approximately two months; details: 2 mL on glass plate, 20°-25° C.
Method: To evaluate the herbicidal compositions under more stringent conditions, we increased their surface area and exposed them to ambient conditions at room temperature, atmospheric pressure, and uncovered over an extended period of time: 2 mL samples of the five liquefied combinations were spotted onto glass plates and left uncovered at ambient conditions (temperatures within a range of 20°-25° C.) for approximately two months.

[4] = Maximum loading of herbicide amine salt in water (HCl titration of amine, Karl-Fischer water); details: glufosinate amine salts in water
Source text: F is a factor that takes into account the amount of base or acid groups on the amine or acid, respectively.

CN(C)Cc1ccccc1.O=C(O)COc1ccc(Cl)cc1Cl [BDMA/2,4-D]
physical state after storage (visual presence of salt solids) [1]: formed single phase liquids
density of max-load solution [2]: 1.25 g/mL
physical state after open exposure on glass plate [3]: turned into a crystallized mass

COc1c(Cl)ccc(Cl)c1C(=O)O [MMEA/dicamba]
physical state after storage (visual presence of salt solids) [1]: formed single phase liquids
density of max-load solution [2]: 1.31 g/mL
physical state after open exposure on glass plate [3]: remained liquefied

CP(=O)(O)CCC(N)C(=O)O.N (centres unmarked) [NH3/glufosinate]
Max Load amine [4]: 1340 g/L
Max Load g ae/L [4]: 1339 g ae/L

CCCCN(CCCC)CCCC.O=C(O)COc1ccc(Cl)cc1Cl [TNBA/2,4-D]
physical state after storage (visual presence of salt solids) [1]: formed single phase liquids
density of max-load solution [2]: 1.1 g/mL
physical state after open exposure on glass plate [3]: turned into a crystallized mass

From patent US11109591B2, “Single phase liquids of alkanolamine salts of dicamba” (Taminco BVBA, priority 2017, dated 2021)
